Measurements: patent publication US11919905B2, “Substituted benzo[f]imidazo[1,2-a][1,4]diazepines as anesthetics” (HANGZHOU ADAMERCK PHARMLABS INC., priority 2017, dated 2024)

How the values were obtained:
Assay type in all cases: in vivo
ICR mice [1] = assay: Disappearance of righting reflex in mice induced by drugs (single i.v. bolus); conditions: 100 mg/kg single bolus via tail vein, male ICR mice
Protocol: After ICR mice (male, 18-25 g) were fast injected with the same dose (100 mg/kg) of the test drug in a single bolus via the tail vein, the incubation period and the duration of disappearance of the righting reflex in mice were recorded. Wherein, the incubation period refers to the time from the start of administration to the disappearance of the animal's righting reflex, and the duration refers to the time from the disappearance of the righting reflex to the recovery.

ICR mice [2] = assay: Effective dose and lethal dose of intravenous administration in mice; conditions: single bolus via tail vein, male ICR mice; for minimal effective dose: Mus musculus, iv, read-out: Effective dose (lowest dose causing the righting reflex to disappear)
Protocol: ICR mice (males, 18-25 g) were randomly grouped and were fast given a single bolus of different doses of test drug via the tail vein, and the lowest dose causing the righting reflex to disappear (effective dose) and the dose causing animal death (lethal dose) were recorded, and the treatment windows (lethal dose/effective dose) were calculated.

mice [3] = assay: Multiple (9 times) i.v. administrations: duration of disappearance of righting reflex in mice; conditions: 20 mg/kg i.v.
Protocol: Animals in each group were given the corresponding drug solution multiple times by the tail vein injection (i.v.) in accordance with the corresponding group, 0.1 ml per mouse each time, for 9 times of consecutive injections (the administration group mice were injected when the righting reflex was recovered). The durations of each disappearance of righting reflex were recorded, and the data was expressed as an average.

mice [4] = assay: Single i.v. administration: autonomous activity of mice; conditions: single i.v. 20 mg/kg
Protocol: Animals in each group were tested for their autonomous activities, each mouse for 10 minutes. After that, the animals in each group were given a single corresponding drug solution by the tail vein injection (i.v.) according to the corresponding group, 0.1 ml per 10 g body weight, and the autonomous activity of the mice was measured immediately after the administration, and the recording time was 50 min. Data were expressed as mean±standard deviation. Wherein, the dosage of propofol was 20 mg/kg.

Row | SMILES | Duration (time from disappearance of righting reflex to recovery) (ICR mice [1]) [min] | Incubation period (time from start of administration to disappearance of righting reflex) (ICR mice [1]) [min] | minimal effective dose (ICR mice [2]) [mg/kg] | Lethal dose (dose causing animal death) (ICR mice [2]) [mg/kg] | Treatment window (lethal dose/effective dose) (ICR mice [2]) | other results
1 | COC(=O)CC[C@@H]1N=C(c2ccccn2)c2cc(F)c(C)cc2-n2c(C)cnc21.O=S(=O)(O)c1ccccc1 [Compound 1-1] | 7.00 | 0.35 | 60 | 320 | 5.3 | –
2 | COC(=O)CC[C@@H]1N=C(c2ccccn2)c2cc(F)c(C)cc2-n2c(C)cnc21.Cl [Compound 1-3] | 7.20 | 0.30 | 60 | 280 | 4.67 | –
3 | COC(=O)CC[C@@H]1N=C(c2cccnc2)c2cc(F)c(C)cc2-n2c(C)cnc21.Cc1ccc(S(=O)(=O)O)cc1 [Compound 1-4] | 9.32 | 0.37 | 80 | 280 | 3.5 | –
4 | COC(=O)CC[C@@H]1N=C(c2ccncc2)c2cc(F)c(C)cc2-n2c(C)cnc21.Cc1ccc(S(=O)(=O)O)cc1 [Compound 1-5] | 8.21 | 0.40 | 60 | 320 | 5.3 | –
5 | COC(=O)CC[C@@H]1N=C(c2ccccn2)c2cc(Br)c(C)cc2-n2c(C)cnc21.Cc1ccc(S(=O)(=O)O)cc1 [Compound 1-6] | 7.98 | 0.47 | 100 | 380 | 3.8 | –
6 | COC(=O)CC[C@@H]1N=C(c2ccccn2)c2cc([N+](=O)[O-])c(C)cc2-n2c(C)cnc21.Cc1ccc(S(=O)(=O)O)cc1 [Compound 1-7] | 8.39 | 0.60 | 40 | 240 | 6 | –
7 | COC(=O)CC[C@@H]1N=C(c2ccccn2)c2cc(C(F)(F)F)c(C)cc2-n2c(C)cnc21.Cc1ccc(S(=O)(=O)O)cc1 [Compound 1-8] | 8.60 | 0.55 | 40 | 260 | 6.5 | –
8 | COC(=O)CC[C@@H]1N=C(c2ccccn2)c2cc(OC)c(C)cc2-n2c(C)cnc21.Cc1ccc(S(=O)(=O)O)cc1 [Compound 1-9] | 8.77 | 0.63 | 60 | 260 | 4.3 | –
9 | COC(=O)CC[C@@H]1N=C(c2ccccn2)c2cc(OC)c(OC)cc2-n2c(C)cnc21.Cc1ccc(S(=O)(=O)O)cc1 [Compound 1-10] | 7.86 | 0.48 | 80 | 300 | 3.75 | –
10 | COC(=O)CC[C@@H]1N=C(c2ccccn2)c2cc(F)c(F)cc2-n2c(C)cnc21.Cc1ccc(S(=O)(=O)O)cc1 [Compound 1-11] | 7.28 | 0.53 | 80 | 320 | 4 | –
11 | COC(=O)CC[C@@H]1N=C(c2ccccn2)c2cc(Cl)c(Cl)cc2-n2c(C)cnc21.Cc1ccc(S(=O)(=O)O)cc1 [Compound 1-12] | 8.35 | 0.42 | 60 | 300 | 5 | –
12 | COC(=O)CC[C@@H]1N=C(c2ccccn2)c2cc(C)c(C)cc2-n2c(C)cnc21.Cc1ccc(S(=O)(=O)O)cc1 [Compound 1-13] | – | – | 80 | 320 | 4 | –
13 | COC(=O)CC[C@@H]1N=C(c2cccnc2)c2cc(F)c(C(F)(F)F)cc2-n2c(C)cnc21.Cc1ccc(S(=O)(=O)O)cc1 [Compound 1-14] | 6.30 | 0.58 | 100 | 360 | 3.6 | –
14 | COC(=O)CC[C@@H]1N=C(c2ccccn2)c2cc(OC)c(F)cc2-n2c(C)cnc21.Cc1ccc(S(=O)(=O)O)cc1 [Compound 1-15] | 9.02 | 0.54 | 60 | 320 | 5.3 | –
15 | CCOC(=O)CC[C@@H]1N=C(c2cccnc2)c2cc(C)c(F)cc2-n2c(C)cnc21.Cc1ccc(S(=O)(=O)O)cc1 [Compound 1-16] | 9.35 | 0.86 | 40 | 280 | 7 | –
16 | CCOC(=O)CC[C@@H]1N=C(c2ccccn2)c2cc(CC)c(OC)cc2-n2c(C)cnc21.Cc1ccc(S(=O)(=O)O)cc1 [Compound 1-17] | 7.24 | 0.75 | 80 | 360 | 4.5 | –
17 | CC(C)c1cccc(C(C)C)c1O [Propofol, reference compound] | – | – | – | – | – | Percentage of extension of righting reflex disappearance (mice [3]; administration 1): 100%; righting reflex disappearance time (mice [3]; administration 1): 4.0 min; Percentage of extension of righting reflex disappearance (mice [3]; administration 2): 144%; righting reflex disappearance time (mice [3]; administration 2): 5.8 min; Percentage of extension of righting reflex disappearance (mice [3]; administration 3): 259%; righting reflex disappearance time (mice [3]; administration 3): 10.4 min; Percentage of extension of righting reflex disappearance (mice [3]; administration 4): 300%; righting reflex disappearance time (mice [3]; administration 4): 12.1 min; Percentage of extension of righting reflex disappearance (mice [3]; administration 5): 292%; righting reflex disappearance time (mice [3]; administration 5): 11.7 min; Percentage of extension of righting reflex disappearance (mice [3]; administration 6): 378%; righting reflex disappearance time (mice [3]; administration 6): 15.2 min; Percentage of extension of righting reflex disappearance (mice [3]; administration 7): 439%; righting reflex disappearance time (mice [3]; administration 7): 17.6 min; Percentage of extension of righting reflex disappearance (mice [3]; administration 8): 404%; righting reflex disappearance time (mice [3]; administration 8): 16.2 min; Percentage of extension of righting reflex disappearance (mice [3]; administration 9): 426%; righting reflex disappearance time (mice [3]; administration 9): 17.1 min; time after administration at which mice were awake (mice [4]): 5 to 10 min; time after administration until autonomic activities basically recovered (mice [4]): 15 min
